Reference: US4791133A, “Phenylene, furyl, and thienyl leukotriene B4 analogues” (G. D. Searle & Co., priority 1987, dated 1988)
“And” between values parts separate entries of the source, which are not always exact repeats. Equal values may be shown once. Where a name gives a salt, the structure may show the parent alone.

Assays:
LTB4 receptors = biological target: T1, LTB4 receptors (Homo sapiens, UniProt Q15722); experiment: LTB4 Receptor Binding Assay ((3H) LTB4, human neutrophils); settings: 0.6 nM (3H) LTB4, human neutrophils; for IC50: 0° C., 45 minutes, pH 7.4, read-out: Inhibition of Receptor Binding of LTB4 IC50
T1 construct: neutrophils were purified from venous blood of normal human donors; endogenous in cells; host or cells: neutrophils purified from venous blood of normal human donors (purity ≥95%)
Source text: (§1) For use in both the "LTB4 receptor Binding Assay" and the "Human Neutrophil Degranulation Assay", neutrophils were purified from venous blood of normal human donors using standard techniques of dextran sedimentation, centrifugation on Histopaque® (density solution) and hypotonic lysis of erythrocytes (Boyum, A., Isolation of Leukocytes From Human Blood: Further Observations. Scand. J. Lab. Clin. Inves. 21 (Suppl. 97): 31, 1968). The purity of isolated neutrophils was ≥95%.
Neutrophils (4-6×10^6) in 1 ml of Hanks' balanced salt solution containing 10 mM Hepes Buffer (HBSS), pH 7.4 and 30 μM nordihydroguaiaretic acid were incubated with 0.6 nM (^3 H) LTB4 in the presence or absence of test compounds. The incubation was carried out at 0° C. for 45 minutes and terminated by adding 5 ml of ice-cold HBSS followed by rapid filtration of incubation mixture under vacuum through GF/C glass fiber filters. The filters were further washed with 10 ml HBSS and their radioactivity was determined. Specific binding was defined as the difference between total binding and nonspecific binding which was not displaced by 10^-7 M unlabeled LTB4.
The inhibition of specific binding was determined for representative compounds of this invention, and the corresponding IC50 values calculated (Table 1). An IC50 is the concentration of the compound of interest which will inhibit the binding of LTB4 by 50% of the LTB4 receptors. For example, for the compound of Example 7, the IC50 was determined to be approximately 5 μM.

[1] = system: LTB4 induced neutrophil degranulation; experiment: Human Neutrophil Degranulation Assay (LTB4 induced myeloperoxidase release); type: cell-based; settings: LTB4 5×10^-8 M, cytochalasin B, human neutrophils, 7 minutes preincubation with compound, read-out: Inhibition of LTB4 Induced Neutrophil Degranulation IC50
Source text: as §1
LTB4 induced neutrophil degranulation was determined by measuring the release of myeloperoxidase activity into the incubation medium. Neutrophils (3×10^6) in 1 ml HBSS solution was preincubated with cytochalasin B(5 μg) at 37° C. for 5 minutes, followed by preincubation with test compounds for 7 minutes. Neutrophils were then incubated for 2 to 20 minutes with either LTB4 (5×10^-8 M) or the chemotactic peptide f-met-leu-phe ([…]) to induce degranulation. Following incubation, samples were centrifuged and myleoperoxidase was extracted from the cell pellets by sonication in phosphate buffer containing 0.4% Triton X-100. Triton X-100 was also added to the supernatents to a concentration of 0.4%. The supernatants and the pellet extracts were then assayed spectrophotometrically for myeloperoxide activity by determining the rate of decomposition of H2 O2 with o-dianisidine as hydrogen donor as described by Renlund, D. G., MacFarlane, J. L., Christensen, R. D., Lynch, R. E., and Rothstein, G., A Quantitative And Sensitive Method For Measurement Of Myeloperoxidose, Clinical Research 28: 75A, 1980). Myeloperoxidase activity released into the supernatant was expressed as the percent of the average total activity (pellet plus supernatant).
The inhibition of LTB4 induced neutrophil degranulation was determined for representative compounds of this invention and their corresponding IC50 values were calculated (Table 1). The concentration of a compound which inhibited LTB4 induced neutrophil degranulation by 50% was determined to be its IC50 value.

T1 sequence (Q15722 whole entry): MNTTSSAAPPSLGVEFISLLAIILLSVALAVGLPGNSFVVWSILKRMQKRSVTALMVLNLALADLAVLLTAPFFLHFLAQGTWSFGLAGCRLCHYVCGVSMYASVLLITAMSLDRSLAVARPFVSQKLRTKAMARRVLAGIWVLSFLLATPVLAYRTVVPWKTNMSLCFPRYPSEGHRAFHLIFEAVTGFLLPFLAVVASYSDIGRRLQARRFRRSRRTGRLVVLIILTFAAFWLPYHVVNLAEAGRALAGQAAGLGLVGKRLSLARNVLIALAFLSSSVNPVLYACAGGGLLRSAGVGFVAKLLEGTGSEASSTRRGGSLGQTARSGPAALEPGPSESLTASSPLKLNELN

| SMILES | IC50 (LTB4 receptors) | IC50 [1] | inhibition at 10 µM (LTB4 receptors; at 10μM) |
| --- | --- | --- | --- |
| CCCCCCCCC(O)c1ccc(C#CC(O)CCCC(=O)O)s1 (stereo not shown) [Example 22, 7-[2-[5-(1-hydroxynonyl)]thienyl-5-hydroxy-6Z-heptynoic acid, lithium salt] |  | 8700 nM | 20% |
| CCCCCCCCC(O)c1ccc(/C=C\C(O)CCCC(=O)O)s1 (stereo not shown) [Example 23, 7-[2-[5-(1-hydroxynonyl)]thienyl-5-hydroxy-6Z-heptenoic acid, lithium salt] | 5000 nM | 1800 nM |  |

These reach a lower IC50 [1]. Values come first.

| IC50 (LTB4 receptors) | IC50 [1] | inhibition at 10 µM (LTB4 receptors; at 10μM) | SMILES |
| --- | --- | --- | --- |
| ~5000 nM and 5000 nM | 700 nM |  | CCCCC/C=C\CC(O)c1ccc(/C=C\[C@@H](O)CCCC(=O)O)cc1 (stereo partly drawn) [Example 7, 7[4-(1-hydroxy-3Z-nonenyl)phenyl]-5S-hydroxy-6Z-heptenoic acid, lithium salt] |
| 1000 nM | 650 nM |  | CCCCCCCCC(O)c1ccc(/C=C\C(O)CCCC(=O)OC)cc1 (stereo not shown) [Example 12, Methyl 7-[4-(1-hydroxynonyl)phenyl]-5-hydroxy-6Z-heptenoate] |
| 2000 nM | 1000 nM |  | CCCCCCCCC(O)c1ccc(/C=C\C(O)CCCC(=O)O)cc1 (stereo not shown) [Example 21, 7-[4-(1-hydroxynonyl)phenyl]-5-hydroxy-6Z-heptenoic acid, lithium salt] |
